According to ChEMBL document CHEMBL1201862, “PubChem BioAssay data set” (2004):
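Interpolation was linear, between the two tested concentrations surrounding the appropriate level; five concentrations were tested over 48 hours in 96-well plates. GI50 is the concentration that inhibits growth by half.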 Active and inactive are the calls of the source. Rule as the data show it: active = GI50 up to about 1.1 µM and inactive = higher.

Legend:
Assay in all cases: NCI anticancer screen, dose series, 48 h
NCI/ADR-RES = tested on: NCI/ADR-RES
RXF 393 = tested on: RXF 393
MCF7 = tested on: MCF7
LOX IMVI = tested on: LOX IMVI
EKVX = tested on: EKVX
DU-145 = tested on: DU-145
HL-60 = tested on: HL-60
786-0 = tested on: 786-0
SR = tested on: SR
CCRF-CEM = tested on: CCRF-CEM
HCT-116 = tested on: HCT-116
M14 = tested on: M14
HOP-92 = tested on: HOP-92
U-251 = tested on: U-251
NCI-H460 = tested on: NCI-H460
A498 = tested on: A498
MDA-MB-231 = tested on: MDA-MB-231
UO-31 = tested on: UO-31
MOLT-4 = tested on: MOLT-4

SMILES	GI50 (NCI/ADR-RES)	GI50 (RXF 393)	GI50 (MCF7)	GI50 (LOX IMVI)	GI50 (EKVX)	GI50 (DU-145)	GI50 (HL-60)	GI50 (786-0)	GI50 (SR)	GI50 (CCRF-CEM)	GI50 (HCT-116)	GI50 (M14)	GI50 (HOP-92)	GI50 (U-251)	GI50 (NCI-H460)	GI50 (A498)	GI50 (MDA-MB-231)	GI50 (UO-31)	GI50 (MOLT-4)
S=C(/N=C1/NCC(CN2CCN(c3ccccc3)CC2)O1)Nc1ccccc1 (stereo not drawn)	> 100 µM (inactive)	39.8 µM (inactive)	38.4 µM (inactive)	25 µM (inactive)	> 100 µM (inactive)	56.9 µM (inactive)	29 µM (inactive)	76.7 µM (inactive)	34.6 µM (inactive)	30.5 µM (inactive)	48.3 µM (inactive)	> 100 µM (inactive)	92.3 µM (inactive)	55.3 µM (inactive)	23.3 µM (inactive)	> 100 µM (inactive)	35.9 µM (inactive)	11.6 µM (inactive)	27.5 µM (inactive)
CCC/N=C/c1cc(Cc2ccc(O)c(/C=N/CCC)c2)ccc1O	17.2 µM (inactive)	16.3 µM (inactive)	2.36 µM (inactive)	3.17 µM (inactive)	8.87 µM (inactive)	4.61 µM (inactive)	2.21 µM (inactive)	12.8 µM (inactive)	1.95 µM (inactive)		2.37 µM (inactive)	2.69 µM (inactive)	1.85 µM (inactive)	2.64 µM (inactive)	18.4 µM (inactive)	2.37 µM (inactive)	9.89 µM (inactive)	17.1 µM (inactive)	1.54 µM (inactive)
COc1ccc(-n2c(Cn3nnc(-c4cccnc4)n3)nn(C3OC(COC(=O)c4ccccc4)C(OC(=O)c4ccccc4)C3OC(=O)c3ccccc3)c2=S)cc1 (stereo not drawn)	> 100 µM (inactive)	> 100 µM (inactive)	> 100 µM (inactive)	> 100 µM (inactive)	39.4 µM (inactive)	> 100 µM (inactive)	> 100 µM (inactive)	> 100 µM (inactive)	> 100 µM (inactive)	> 100 µM (inactive)	> 100 µM (inactive)	> 100 µM (inactive)	> 100 µM (inactive)	> 100 µM (inactive)	> 100 µM (inactive)	> 100 µM (inactive)	49 µM (inactive)	> 100 µM (inactive)	> 100 µM (inactive)
COC(=O)/C=C(/C(=O)OC)c1c(C)c(C)c2c(C)cc(C)cc(C)c1-2	15.2 µM (inactive)	26.9 µM (inactive)	25.2 µM (inactive)	28.7 µM (inactive)	59.7 µM (inactive)	36.9 µM (inactive)	> 100 µM (inactive)	> 100 µM (inactive)	45.5 µM (inactive)	> 100 µM (inactive)	17.4 µM (inactive)	8.93 µM (inactive)	21.2 µM (inactive)	26.9 µM (inactive)	29 µM (inactive)	97.9 µM (inactive)	18.1 µM (inactive)	13.6 µM (inactive)	> 100 µM (inactive)
CC[C@@]12CCCN3CC[C@]4(c5cccc(OC)c5N(C(C)=O)[C@@H]4CC1)[C@H]32 [ASPIDOSPERMINE]	> 100 µM (inactive)	60.4 µM (inactive)	63.1 µM (inactive)	30.6 µM (inactive)	44.2 µM (inactive)	> 100 µM (inactive)	20.7 µM (inactive)	80.5 µM (inactive)	27.7 µM (inactive)	26.2 µM (inactive)	44.9 µM (inactive)	36.5 µM (inactive)	35.6 µM (inactive)	94 µM (inactive)	54.3 µM (inactive)	42.7 µM (inactive)	> 100 µM (inactive)	68.5 µM (inactive)	25.3 µM (inactive)
O=c1[nH]c2cc3cccnc3c(Cl)c2nc1C(F)(F)F	33.3 µM (inactive)	46.7 µM (inactive)	28.3 µM (inactive)	32.4 µM (inactive)	9.91 µM (inactive)	54.8 µM (inactive)	32.9 µM (inactive)	72.4 µM (inactive)	28.2 µM (inactive)	28.1 µM (inactive)	43.5 µM (inactive)	28.8 µM (inactive)	7.16 µM (inactive)	50.8 µM (inactive)	27.5 µM (inactive)	19.2 µM (inactive)	30.3 µM (inactive)	27.7 µM (inactive)	23.6 µM (inactive)
O=c1cc(/N=N\c2ccc(Cl)c(Cl)c2)[nH]c(=O)[nH]1	1.85 µM (inactive)	1.77 µM (inactive)	1.64 µM (inactive)	1.76 µM (inactive)	1.6 µM (inactive)	2.94 µM (inactive)	0.292 µM (active)	1.51 µM (inactive)	0.337 µM (active)	0.033 µM (active)	1.75 µM (inactive)	1.93 µM (inactive)	1.59 µM (inactive)	1.87 µM (inactive)	2.47 µM (inactive)	15.3 µM (inactive)	1.85 µM (inactive)	2.07 µM (inactive)	1.97 µM (inactive)
CCCCCCCCCCCCCCCC[N+](C)(C)CCl	20.6 µM (inactive)	1.32 µM (inactive)	2.69 µM (inactive)	1.51 µM (inactive)	8.61 µM (inactive)	3.78 µM (inactive)	0.964 µM (active)	1.55 µM (inactive)	1.99 µM (inactive)	1.15 µM (inactive)	2.14 µM (inactive)	2.31 µM (inactive)	1.17 µM (inactive)	1.68 µM (inactive)	1.77 µM (inactive)	8.67 µM (inactive)	2.02 µM (inactive)	11.1 µM (inactive)	1.84 µM (inactive)
Cc1ccc(S(=O)(=O)NC(=O)NCCc2ccc(O)c(O)c2)cc1	> 100 µM (inactive)	> 100 µM (inactive)	61.8 µM (inactive)	53.6 µM (inactive)	> 100 µM (inactive)	> 100 µM (inactive)	56.5 µM (inactive)	> 100 µM (inactive)	> 100 µM (inactive)		> 100 µM (inactive)	> 100 µM (inactive)	> 100 µM (inactive)	> 100 µM (inactive)	> 100 µM (inactive)	> 100 µM (inactive)	> 100 µM (inactive)	> 100 µM (inactive)	58.2 µM (inactive)
CC(=O)Nc1ccc(-c2cc(C(=O)O)c3cc4ccccc4cc3n2)cc1	> 100 µM (inactive)	> 100 µM (inactive)	> 100 µM (inactive)	> 100 µM (inactive)	> 100 µM (inactive)	> 100 µM (inactive)	> 100 µM (inactive)	> 100 µM (inactive)	> 100 µM (inactive)		> 100 µM (inactive)	> 100 µM (inactive)	> 100 µM (inactive)	> 100 µM (inactive)	> 100 µM (inactive)	> 100 µM (inactive)	> 100 µM (inactive)		> 100 µM (inactive)
COc1cccc(Nc2nc(C)c([N+](=O)[O-])c(Nc3cccc(OC)c3)n2)c1	2.92 µM (inactive)	4.86 µM (inactive)	2.24 µM (inactive)	16.1 µM (inactive)	6.35 µM (inactive)	9.79 µM (inactive)	11.2 µM (inactive)	51.9 µM (inactive)	7.76 µM (inactive)		26.6 µM (inactive)	10.4 µM (inactive)	6.08 µM (inactive)	49.1 µM (inactive)	3.95 µM (inactive)	9.35 µM (inactive)	49.7 µM (inactive)	9.27 µM (inactive)	4.37 µM (inactive)
COC(=O)c1ccccc1Nc1nc(-c2cccs2)nc2cc(OC)c(OC)cc12	57 µM (inactive)	68.1 µM (inactive)	72.3 µM (inactive)	39.4 µM (inactive)	37.9 µM (inactive)	92.3 µM (inactive)	> 100 µM (inactive)	38.8 µM (inactive)	18 µM (inactive)		37.5 µM (inactive)	> 100 µM (inactive)	44.5 µM (inactive)	31.2 µM (inactive)	58.6 µM (inactive)	> 100 µM (inactive)	28.9 µM (inactive)	> 100 µM (inactive)	57.9 µM (inactive)
COc1cc2nc3n(c2cc1OC)C(O)c1c(Cl)nc(SC)nc1S3 (stereo not drawn)	3.36 µM (inactive)	2.3 µM (inactive)	3.36 µM (inactive)	1.7 µM (inactive)	15.4 µM (inactive)	2.39 µM (inactive)		2.35 µM (inactive)	3.68 µM (inactive)	1.17 µM (inactive)	2.46 µM (inactive)	2.67 µM (inactive)	12.2 µM (inactive)	3.37 µM (inactive)	3.44 µM (inactive)	6.81 µM (inactive)	4.42 µM (inactive)	2.99 µM (inactive)	1.98 µM (inactive)
COC(=O)C(CCCCN)NC(C)=O.Cc1ccc(C(=O)Nc2ccc(S(=O)(=O)O)c3cc(S(=O)(=O)O)cc(S(=O)(=O)O)c23)cc1NC(=O)c1cccc(NC(=O)Nc2cccc(C(=O)Nc3cc(C(=O)Nc4ccc(S(=O)(=O)O)c5cc(S(=O)(=O)O)cc(S(=O)(=O)O)c45)ccc3C)c2)c1	> 50 µM (inactive)	37.4 µM (inactive)	> 50 µM (inactive)	44.8 µM (inactive)		> 50 µM (inactive)	> 50 µM (inactive)	> 50 µM (inactive)	> 50 µM (inactive)	> 50 µM (inactive)	> 50 µM (inactive)	> 50 µM (inactive)	> 50 µM (inactive)	> 50 µM (inactive)	> 50 µM (inactive)	> 50 µM (inactive)	> 50 µM (inactive)	> 50 µM (inactive)	> 50 µM (inactive)
